Test results taken from PubChem BioAssay AID330 (DTP/NCI, 2004).
Values joined by “and” are separate entries in the source; they are usually repeats but may differ in a detail not shown here. Equal values may be shown once. Toxic doses and inconclusive results are not listed.

Test system: P388 leukemia ip, CD2F1 mice, survival T/C
Assay: NCI In Vivo Anticancer Drug Screen. Data for tumor model P388 Leukemia (intraperitoneal) in CD2F1 (CDF1) mice
Details: endpoint: median survival time, higher = longer survival
Outline: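 Mice carrying the transplanted tumor received test compound or vehicle. Survival was recorded in each group, and the value is the treated-group measurement divided by that of the vehicle-treated control group.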

[1] = dose: 50.0 mg/kg/injection, schedule: Q01DX005 (ip), vehicle: Klucel (hydroxypropylcellulose) (HPC)
[2] = dose: 100.0 mg/kg/injection, schedule: Q01DX005 (ip), vehicle: Klucel (hydroxypropylcellulose) (HPC)
[3] = dose: 200.0 mg/kg/injection, schedule: Q01DX005 (ip), vehicle: Klucel (hydroxypropylcellulose) (HPC)
[4] = dose: 25.0 mg/kg/injection, schedule: Q01DX009 (ip), vehicle: saline with Tween-80
[5] = dose: 50.0 mg/kg/injection, schedule: Q01DX009 (ip), vehicle: saline with Tween-80
[6] = dose: 100.0 mg/kg/injection, schedule: Q01DX009 (ip), vehicle: saline with Tween-80
[7] = dose: 200.0 mg/kg/injection, schedule: Q01DX009 (ip), vehicle: saline with Tween-80
[8] = dose: 50.0 mg/kg/injection, schedule: Q01DX005 (ip), vehicle: saline with Tween-80
[9] = dose: 100.0 mg/kg/injection, schedule: Q01DX005 (ip), vehicle: saline with Tween-80
[10] = dose: 200.0 mg/kg/injection, schedule: Q01DX005 (ip), vehicle: saline with Tween-80
[11] = dose: 50.0 mg/kg/injection, schedule: Q01DX009 (ip), vehicle: Klucel (hydroxypropylcellulose) (HPC)
[12] = dose: 100.0 mg/kg/injection, schedule: Q01DX009 (ip), vehicle: Klucel (hydroxypropylcellulose) (HPC)
[13] = dose: 200.0 mg/kg/injection, schedule: Q01DX009 (ip), vehicle: Klucel (hydroxypropylcellulose) (HPC)
[14] = dose: 60.0 mg/kg/injection, schedule: Q01DX005 (ip), vehicle: saline with Tween-80
[15] = dose: 120.0 mg/kg/injection, schedule: Q01DX005 (ip), vehicle: saline with Tween-80
[16] = dose: 240.0 mg/kg/injection, schedule: Q01DX005 (ip), vehicle: saline with Tween-80

Q: With CC(=O)OCC12C(OC(C)=O)C(=O)C3C(OC(C)=O)C14OC3(C)COC(=O)c1cccnc1C(C)C(C)C(=O)OC(C(OC(C)=O)C2OC(C)=O)C4(C)O (centres undefined) as the compound, how does the T/C (dose: 3.0 mg/kg/injection, schedule: Q01DX009 (ip), vehicle: Klucel (hydroxypropylcellulose) (HPC)) read?
A: 104 % of control

Q: And the T/C (dose: 6.0 mg/kg/injection, schedule: Q01DX009 (ip), vehicle: Klucel (hydroxypropylcellulose) (HPC))?
A: 93 % of control

Q: What about the T/C (dose: 12.0 mg/kg/injection, schedule: Q01DX009 (ip), vehicle: Klucel (hydroxypropylcellulose) (HPC)) of the same compound?
A: 96 % of control

Q: What about the T/C (dose: 24.0 mg/kg/injection, schedule: Q01DX009 (ip), vehicle: Klucel (hydroxypropylcellulose) (HPC)) of the same compound?
A: 96 % of control

Q: Which results are given for Nc1cc2ccncc2c2ccccc12?
A: T/C (dose: 50.0 mg/kg/injection, schedule: Q04DX003 (ip), vehicle: saline sonified): 100 % of control; T/C (dose: 100.0 mg/kg/injection, schedule: Q04DX003 (ip), vehicle: saline sonified): 90 % of control; T/C (dose: 200.0 mg/kg/injection, schedule: Q04DX003 (ip), vehicle: saline sonified): 95 % of control

Q: Cc1[nH]n(-c2cc(S(=O)(=O)O)ccc2Cl)c(=O)c1N=Nc1ccc(C(=O)Nc2ccc(S(=O)(=O)O)cc2)cc1 was tested. Which T/C [1] did it give?
A: 99 % of control

Q: What about the T/C [2] of the same compound?
A: 92 % of control

Q: And the T/C [3]?
A: 99 % of control

Q: With CCOC(=O)N(C)C(C)=O as the compound, how does the T/C (dose: 6.25 mg/kg/injection, schedule: Q01DX009 (ip), vehicle: saline with Tween-80) read?
A: 100 % of control

Q: What about the T/C (dose: 12.5 mg/kg/injection, schedule: Q01DX009 (ip), vehicle: saline with Tween-80) of the same compound?
A: 97 % of control

Q: And the T/C [4]?
A: 106 % of control

Q: And the T/C [5]?
A: 104 % of control

Q: What about the T/C [6] of the same compound?
A: 96 % of control

Q: And the T/C (dose: 200.0 mg/kg/injection, schedule: Q01DX009 (ip), vehicle: saline)?
A: 103 % of control

Q: What does the source list for Nc1nc(-c2ccccc2)nc(Cl)c1I?
A: T/C [4]: 103 % of control; T/C [5]: 105 % of control; T/C [6]: 102 % of control; T/C (dose: 100.0 mg/kg/injection, schedule: Q04DX003 (ip), vehicle: saline): 94 % of control; T/C [7]: 105 % of control; T/C (dose: 200.0 mg/kg/injection, schedule: Q04DX003 (ip), vehicle: saline): 94 % of control; T/C (dose: 400.0 mg/kg/injection, schedule: Q04DX003 (ip), vehicle: saline): 101 % of control

Q: With C=CC(=O)C1OC2OC(C)(C)OC2C2OC(C)(C)OC12 (centres undefined) as the compound, how does the T/C [8] read?
A: 93 % of control

Q: And the T/C [9]?
A: 97 % of control

Q: What about the T/C [10] of the same compound?
A: 98 % of control

Q: O=C(Nc1ccc(CCc2ccc(NC(=O)C34CC5CC(CC(C5)C3)C4)cc2)cc1)C12CC3CC(CC(C3)C1)C2 was tested. Which T/C [8] did it give?
A: 96 % of control

Q: What about the T/C [9] of the same compound?
A: 90 % of control

Q: Which results are given for O=C(OCc1ccccc1)SS(=O)(=O)O?
A: T/C [11]: 95 % of control; T/C [12]: 110 % of control; T/C [13]: 119 % of control

Q: What does the source list for O=S(=O)(c1ccc(Cl)cc1)N(CCCCN(S(=O)(=O)c1ccc(Cl)cc1)S(=O)(=O)c1ccc(Cl)cc1)S(=O)(=O)c1ccc(Cl)cc1?
A: T/C [14]: 99 % of control; T/C [15]: 93 % of control; T/C [16]: 90 % of control

Q: Which results are given for CC(C)(O)C1CC(=O)C(C)(C2C(O)CC3(C)C4CC=C5C(CCC(O)C5(C)C)C4(C)C(=O)CC23C)O1 (centres undefined)?
A: T/C (dose: 9.63 mg/kg/injection, schedule: Q01DX005 (ip), vehicle: saline + alcohol): 113 % of control; T/C (dose: 19.25 mg/kg/injection, schedule: Q01DX005 (ip), vehicle: saline + alcohol): 102 % of control; T/C (dose: 38.5 mg/kg/injection, schedule: Q01DX005 (ip), vehicle: saline + alcohol): 102 % of control; T/C (dose: 77.0 mg/kg/injection, schedule: Q01DX005 (ip), vehicle: saline + alcohol): 97 % of control

Q: How did the T/C (dose: 6.25 mg/kg/injection, schedule: Q01DX005 (ip), vehicle: saline) turn out when C/C=N/NCCC#N was run?
A: 100 % of control

Q: What about the T/C (dose: 12.5 mg/kg/injection, schedule: Q01DX005 (ip), vehicle: saline) of the same compound?
A: 100 % of control

Q: What about the T/C (dose: 25.0 mg/kg/injection, schedule: Q01DX005 (ip), vehicle: saline) of the same compound?
A: 90 % of control

Q: Which results are given for C=Cc1cc(OC)c2c(c1)c(=O)oc1c2cc(OC)c2c(O)ccc(C3OC(C)C(O)C(C)(O)C3O)c21 (centres undefined)?
A: T/C (dose: 1.56 mg/kg/injection, schedule: Q01DX005 (ip), vehicle: DMSO): 115 % of control; T/C (dose: 3.12 mg/kg/injection, schedule: Q01DX005 (ip), vehicle: DMSO): 118 % of control; T/C (dose: 12.5 mg/kg/injection, schedule: Q01DX005 (ip), vehicle: DMSO): 150 % of control; T/C (dose: 25.0 mg/kg/injection, schedule: Q01DX005 (ip), vehicle: DMSO): 150 % of control; T/C (dose: 50.0 mg/kg/injection, schedule: Q01DX005 (ip), vehicle: DMSO): 169 % of control

Q: What does the source list for CC1C(c2ccccc2)OCCN1C(=S)Nc1ccc(S(=O)(=O)N2CCCCC2)cc1 (centres undefined)?
A: T/C [11]: 86 % of control and 95 % of control; T/C [12]: 105 % of control; T/C [13]: 91 % of control and 95 % of control

Q: How did the T/C [14] turn out when N#CC(C(=O)CCc1nc2ccccc2[nH]1)c1nc2ccccc2s1 (centres undefined) was run?
A: 102 % of control

Q: And the T/C [15]?
A: 100 % of control

Q: And the T/C [16]?
A: 105 % of control

Q: How did the T/C (dose: 11.0 mg/kg/injection, schedule: Q01DX009 (ip), vehicle: other) turn out when CC1(C)CC(C)(OC(=O)c2ccccc2Cl)N=N1 (centres undefined) was run?
A: 97 % of control

Q: What about the T/C (dose: 12.5 mg/kg/injection, schedule: Q01DX009 (ip), vehicle: other) of the same compound?
A: 107 % of control

Q: And the T/C (dose: 16.5 mg/kg/injection, schedule: Q01DX009 (ip), vehicle: other)?
A: 97 % of control

Q: What about the T/C (dose: 25.0 mg/kg/injection, schedule: Q01DX009 (ip), vehicle: other) of the same compound?
A: 108 % of control

Q: And the T/C (dose: 37.5 mg/kg/injection, schedule: Q01DX009 (ip), vehicle: other)?
A: 116 % of control

Q: What about the T/C (dose: 50.0 mg/kg/injection, schedule: Q01DX009 (ip), vehicle: other) of the same compound?
A: 103 % of control

Q: And the T/C (dose: 100.0 mg/kg/injection, schedule: Q01DX009 (ip), vehicle: other)?
A: 112 % of control

Q: What about the T/C (dose: 200.0 mg/kg/injection, schedule: Q01DX009 (ip), vehicle: other) of the same compound?
A: 116 % of control

Q: How did the T/C [8] turn out when CCn1c2ccccc2c2cc(N=Nc3ccc(N)nc3N)ccc21 was run?
A: 94 % of control

Q: What about the T/C [9] of the same compound?
A: 94 % of control

Q: What about the T/C [10] of the same compound?
A: 96 % of control

Q: Which T/C [14] does the source give for COc1ccc(NC(=O)CCC(=O)C(C)C(=O)c2ccccc2)cc1 (centres undefined) here?
A: 109 % of control

Q: And the T/C [15]?
A: 114 % of control

Q: And the T/C [16]?
A: 120 % of control

Q: With Cc1cc(=O)c2cc3c(cc2[nH]1)OCO3 as the compound, how does the T/C [1] read?
A: 106 % of control

Q: And the T/C [2]?
A: 100 % of control

Q: And the T/C [3]?
A: 100 % of control

Q: Which results are given for N=C(N)SCCC(=O)Nc1ccccc1?
A: T/C (dose: 100.0 mg/kg/injection, schedule: Q04DX003 (ip), vehicle: saline with Tween-80): 106 % of control; T/C (dose: 200.0 mg/kg/injection, schedule: Q04DX003 (ip), vehicle: saline with Tween-80): 106 % of control

Q: CC(=O)N1NC(=O)c2c(c3ccccc3n2C)C1c1ccc(C)cc1 (centres undefined) was tested. Which T/C (dose: 100.0 mg/kg/injection, schedule: Q01DX001 (ip), vehicle: Klucel (hydroxypropylcellulose) (HPC)) did it give?
A: 100 % of control

Q: And the T/C (dose: 200.0 mg/kg/injection, schedule: Q01DX001 (ip), vehicle: Klucel (hydroxypropylcellulose) (HPC))?
A: 110 % of control

Q: What about the T/C (dose: 400.0 mg/kg/injection, schedule: Q01DX001 (ip), vehicle: Klucel (hydroxypropylcellulose) (HPC)) of the same compound?
A: 110 % of control

Q: Which T/C [5] does the source give for CCC(=O)Nc1cc(Cl)cc2[nH]c(C)nc12 here?
A: 110 % of control

Q: And the T/C [6]?
A: 99 % of control

Q: And the T/C [7]?
A: 102 % of control

Q: Which T/C (dose: 6.25 mg/kg/injection, schedule: Q04DX002 (ip), vehicle: Klucel (hydroxypropylcellulose) (HPC)) does the source give for CN1CCCC2Cc3ccccc3CC21 (centres undefined) here?
A: 97 % of control

Q: What about the T/C (dose: 12.5 mg/kg/injection, schedule: Q04DX002 (ip), vehicle: Klucel (hydroxypropylcellulose) (HPC)) of the same compound?
A: 102 % of control

Q: What about the T/C (dose: 25.0 mg/kg/injection, schedule: Q04DX002 (ip), vehicle: Klucel (hydroxypropylcellulose) (HPC)) of the same compound?
A: 104 % of control

Q: What about the T/C (dose: 100.0 mg/kg/injection, schedule: Q04DX002 (ip), vehicle: Klucel (hydroxypropylcellulose) (HPC)) of the same compound?
A: 101 % of control

Q: [C-]#Cc1ccccc1.[C-]#Cc1ccccc1.[Cu+2] was tested. Which T/C (dose: 12.5 mg/kg/injection, schedule: Q04DX003 (ip), vehicle: saline with Tween-80) did it give?
A: 91 % of control

Q: And the T/C (dose: 25.0 mg/kg/injection, schedule: Q04DX003 (ip), vehicle: saline with Tween-80)?
A: 86 % of control

Q: And the T/C (dose: 50.0 mg/kg/injection, schedule: Q04DX003 (ip), vehicle: saline with Tween-80)?
A: 87 % of control
